Test results reported in patent US20220380347A1, “INHIBITORS OF CYSTEINE PROTEASES AND METHODS OF USE THEREOF” (Pardes Biosciences, Inc., priority 2020, published 2022).
Like-named read-outs stand apart in the source and are kept apart here.

Experiments:
229E Mpro = 229E Mpro (Human coronavirus 229E, UniProt P0C6X1); test: 229E Mpro enzymatic assay (standard methods, SARS-CoV2 Mpro assay given as exemplary); format: biochemical, human coronavirus (HCov) 229E
Protocol: Compounds were assayed using standard methods to assess compound activity and IC50. As an exemplary for assessment of the SARS-COV2 Mpro, the C-His6-tagged Mpro (NC_045512) was cloned, expressed in E. coli and purified. The assay buffer contained 20 mM of Tris-HCl (pH 7.3), 100 mM of NaCl, 1 mM of EDTA, 5 mM of TCEP and 0.1% BSA. The final concentrations of the Mpro protein and substrate were 25 nM and 25 μM, respectively, in the Mpro enzymatic assay. The Km of the Mpro substrate for the protease was 13.5 μM.
The compounds were added to an assay plate. […] For no inhibition control (ZPE, zero percent effect), no compound was added.
IC50 values of compounds were calculated with the GraphPad Prism software using the nonlinear regression model of log(inhibitor) vs. response—Variable slope (four parameters). The inhibition activity was calculated using the formula below, IC50 values is calculated using the Inhibition % data.
Inhibition %=[(Sample-Average ZPE)/(Average HPE-Average ZPE)]*100%^#

[1] = target: COVID-19 (nCoV-2019, SARS-CoV2) Mpro (Severe acute respiratory syndrome coronavirus 2, UniProt P0DTD1); test: COVID-19 (nCoV-2019, SARS-CoV2) Mpro enzymatic assay; format: biochemical; settings: 25 nM Mpro, 25 μM substrate; read-out: COVID-19 Mpro IC50
HCov OC43 = test: HCoV OC43 cytopathic effect (CPE) assay, CellTiter Glo; format: cell-based, human coronavirus (HCov) OC43
Protocol: Example 238: Evaluation of antiviral activity of compounds against human coronavirus (HCov) 229E and OC43 in the cytopathic effect (CPE) assays
Compounds were assayed using standard methods against multiple coronaviral strains, including HCoV 229E and OC43 strains. The antiviral activity of compounds was calculated based on the protection of the virus-induced CPE at each concentration normalized by the virus control.
Reference compound used was remdesivir; detection reagent: CellTiter Glo.) The CPE were measured by CellTiter Glo following the manufacturer's manual. The antiviral activity of compounds was calculated based on the protection of the virus-induced CPE at each concentration normalized by the virus control.
Cell viability was measured with CellTiter Glo.

[2] = read-out: OC43 IC50 (uM) MEDIAN, median
[3] = Betacoronavirus 1, OC43, read-out: OC43 IC50 (uM) MEDIAN, median

Chain of 229E Mpro (P0C6X1 2966-3267): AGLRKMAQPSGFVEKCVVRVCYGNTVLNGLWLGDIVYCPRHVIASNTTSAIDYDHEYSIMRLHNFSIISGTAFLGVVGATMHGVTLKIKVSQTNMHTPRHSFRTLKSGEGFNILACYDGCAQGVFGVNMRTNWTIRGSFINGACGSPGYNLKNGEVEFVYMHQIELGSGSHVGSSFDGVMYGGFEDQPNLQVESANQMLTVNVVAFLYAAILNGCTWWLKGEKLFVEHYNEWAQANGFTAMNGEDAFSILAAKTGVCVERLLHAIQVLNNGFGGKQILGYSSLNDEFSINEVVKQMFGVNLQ

Row | SMILES | EC50 (229E Mpro; 229E Mpro EC50) | IC50 [1] | IC50 (HCov OC43; [2]) | IC50 (HCov OC43; [3]) | IC50 (HCov OC43; read-out: OC43 IC50 (uM) MEDIAN, median, listed as 299 Isomer 1) | IC50 (HCov OC43; read-out: OC43 IC50 (uM) MEDIAN, median, listed as 961 Isomer 2) | EC50 (229E Mpro; read-out: 229E Mpro EC50)
1 | CO[C@@H]1C[C@H](C(=O)N(c2ccc(S(F)(F)(F)(F)F)cc2)C(C(=O)Nc2ccc3c(c2)OCCO3)c2cccnc2)N(C#N)C1 (single isomer, unassigned) [1170 Isomer 2] | < 2000 nM | < 2000 nM | < 2 µM | – | – | – | –
2 | C[C@H](NC(=O)C(c1cncc(F)c1)N(C(=O)[C@H]1C[C@@](C)(O)CN1C#N)c1ccc(-c2ccccc2)cc1)c1ccccc1 (single isomer, unassigned) [1345 Isomer 2] | 10000 to 30000 nM | 2000 to 10000 nM | 10 to 30 µM | – | – | – | –
3 | CO[C@@H]1C[C@H](C(=O)N(c2ccc(C(C)(C)C)cc2)C(C)(C(=O)NC2CCCCC2)c2cccnc2)N(C#N)C1 (single isomer, unassigned) [1230 Isomer 1] | 2000 to 10000 nM | > 30000 nM | > 30 µM | – | – | – | –
4 | N#CN1CC(=O)NCC1C(=O)N(c1ccc(S(F)(F)(F)(F)F)cc1)C(C(=O)NC1CCC(F)(F)CC1)c1cncc(F)c1 (stereo not drawn) [Compound 1160, 1-cyano-N-[2-[(4,4-difluorocyclohexyl)amino]-1-(5-fluoro-3-pyridyl)-2-oxo-ethyl]-5-oxo-N-[4-(pentafluoro-λ^6-sulfanyl)phenyl]piperazine-2-carboxamide] | < 2000 nM | < 2000 nM | – | < 2 µM | – | – | –
5 | CC(C)(C)O[C@@H]1C[C@H](C(=O)N(c2ccc(C(C)(C)C)cc2)C(C(=O)NC2CCCCC2)c2cccnc2)N(C#N)C1 (single isomer, unassigned) [Compound 299 Isomer 1] | 10000 to 30000 nM | 10000 to 30000 nM | – | – | 10 to 30 µM | – | –
6 | CO[C@@H]1C[C@H](C(=O)N(c2ccc(S(F)(F)(F)(F)F)cc2)C(C(=O)N(CCO)C2CCC(F)(F)CC2)c2cccnc2)N(C(=O)OCc2ccccc2)C1 (stereo partly drawn) [Compound 1244, Benzyl (2R,4R)-2-[[2-[(4,4-difluorocyclohexyl)-(2-hydroxyethyl)amino]-2-oxo-1-(3-pyridyl)ethyl]-[4-(pentafluoro-λ^6-sulfanyl)phenyl]carbamoyl]-4-methoxy-pyrrolidine-1-carboxylate] | > 30000 nM | > 30000 nM | – | > 30 µM | – | – | –
7 | CC(C)(C)c1ccc(N(C(=O)[C@H]2CCCN2C#N)C(C(=O)N2CCNC(=O)C2)c2cccnc2)cc1 (single isomer, unassigned) [Compound 961 Isomer 2] | 2000 to 10000 nM | > 30000 nM | – | – | – | 10 to 30 µM | –
8 | N#CN1C[C@@H](OC(F)F)C[C@@H]1C(=O)N(c1ccc(S(F)(F)(F)(F)F)cc1)C(C(=O)NC1CCC(F)(F)CC1)c1cncc(F)c1 (single isomer, unassigned) [Compound 823a Isomer 1] | < 2000 nM | < 2000 nM | – | < 2 µM | – | – | –
9 | N#CN1CC2C[C@@]1(C(=O)N(c1ccc(S(F)(F)(F)(F)F)cc1)C(C(=O)NC1CCC(F)(F)CC1)c1cncc(F)c1)CO2 (stereo partly drawn) [Compound 1136b] | 2000 to 10000 nM | 2000 to 10000 nM | – | > 30 µM | – | – | –
10 | CO[C@@H]1C[C@H](C(=O)N(c2ccc(S(F)(F)(F)(F)F)cc2)C(C(=O)NC2CCC(F)(F)CC2)c2ccnnc2)N(C#N)C1 (stereo partly drawn) [Compound 1320, (2R,4R)-1-cyano-N-[2-[(4,4-difluorocyclohexyl)amino]-2-oxo-1-pyridazin-4-yl-ethyl]-4-methoxy-N-[4-(pentafluoro-λ6-sulfanyl)phenyl]pyrrolidine-2-carboxamide] | > 30000 nM | > 30000 nM | – | > 30 µM | – | – | –
11 | CC1(O)CN(C(=O)C(c2cccnc2)N(C(=O)[C@H]2CCCN2C#N)c2ccc(C(C)(C)C)cc2)C1 (single isomer, unassigned) [955 Isomer 2] | – | 10000 to 30000 nM | 10 to 30 µM | – | – | – | 2000 to 10000 nM
12 | C[C@@]1(O)C[C@H](C(=O)N(c2ccc(S(F)(F)(F)(F)F)cc2)C(C(=O)NC2CCC(F)(F)CC2)c2ccc(F)nc2)N(C#N)C1 (single isomer, unassigned) [1157 Isomer 1] | < 2000 nM | < 2000 nM | – | < 2 µM | – | – | –
13 | CO[C@@H]1C[C@H](C(=O)N(c2ccc(S(F)(F)(F)(F)F)cc2)C(C(=O)NCC(C)(C)OC)c2cccnc2)N(C#N)C1 (single isomer, unassigned) [1194 Isomer 1] | < 2000 nM | < 2000 nM | – | < 2 µM | – | – | –
14 | CC(C)(C)c1ccc(N(C(=O)[C@H]2[C@H](F)CCN2C#N)C(C(=O)NC2CCC(F)(F)CC2)c2cncc(F)c2)cc1 (single isomer, unassigned) [1212 Isomer 2] | – | < 2000 nM | < 2 µM | – | – | – | < 2000 nM
15 | COC1CN(C#N)C(C)(C(=O)N(c2ccc(S(F)(F)(F)(F)F)cc2)C(C(=O)NC2CCC(F)(F)CC2)c2cncc(F)c2)C1 (stereo not drawn) [Compound 1135b, 1-cyano-N-[2-[(4,4-difluorocyclohexyl)amino]-1-(5-fluoro-3-pyridyl)-2-oxo-ethyl]-4-methoxy-2-methyl-N-[4-(pentafluoro-λ^6-sulfanyl)phenyl]pyrrolidine-2-carboxamide] | > 30000 nM | > 30000 nM | – | > 30 µM | – | – | –
16 | CC1(C)CCNc2cc(N(C(=O)[C@H]3C[C@@](C)(O)CN3C#N)C(C(=O)NC3CCC(F)(F)CC3)c3cncc(F)c3)ccc21 (single isomer, unassigned) [Compound 1127 Isomer 1] | < 2000 nM | < 2000 nM | < 2 µM | – | – | – | –
17 | N#CN1C[C@@H](OCc2ccccc2)C[C@@H]1C(=O)N(c1ccc(S(F)(F)(F)(F)F)cc1)C(C(=O)NC1CCC(F)(F)CC1)c1cncc(F)c1 (single isomer, unassigned) [1280 Isomer 1] | < 2000 nM | < 2000 nM | – | < 2 µM | – | – | –
18 | N#CN1C[C@H](O)C[C@@H]1C(=O)N(c1ccc(S(F)(F)(F)(F)F)cc1)C(C(=O)NC1CCCCC1)c1cccnc1 (single isomer, unassigned) [Compound 791 Isomer 1] | < 2000 nM | < 2000 nM | – | < 2 µM | – | – | –
19 | CC(C)(C)c1ccc(N(C(=O)[C@H]2CC(=O)CN2C#N)C(C(=O)NC2CCCCC2)c2cccnc2)cc1 (single isomer, unassigned) [Compound 278 Isomer 1] | < 2000 nM | 2000 to 10000 nM | – | 10 to 30 µM | – | – | –
20 | N#CN1C[C@@H](OCc2ccccc2)C[C@@H]1C(=O)N(c1ccc(S(F)(F)(F)(F)F)cc1)C(C(=O)NC1CCC(F)(F)CC1)c1cncc(F)c1 (single isomer, unassigned) [1280 Isomer 2] | 2000 to 10000 nM | > 30000 nM | 2 to 10 µM | – | – | – | –
21 | CO[C@@H]1C[C@H](C(=O)N(c2ccc(S(F)(F)(F)(F)F)cc2)C(C(=O)N2CCN(C(=O)OC(C)(C)C)CC2)c2cccnc2)N(C#N)C1 (stereo partly drawn) [Compound 1149b, tert-butyl-4-[2-[N-[(2R,4R)-1-cyano-4-methoxy-pyrrolidine-2-carbonyl]-4-(pentafluoro-λ6-sulfanyl)anilino]-2-(3-pyridyl)acetyl]piperazine-1-carboxylate] | < 2000 nM | < 2000 nM | – | < 2 µM | – | – | –
22 | C[C@@]1(O)C[C@H](C(=O)N(c2ccc(S(F)(F)(F)(F)F)cc2)C(C(=O)NC2CCC(F)(F)CC2)c2ccc(F)nc2)N(C#N)C1 (single isomer, unassigned) [1157 Isomer 2] | – | 2000 to 10000 nM | 2 to 10 µM | – | – | – | < 2000 nM
23 | C[C@H](NC(=O)C(c1cnccc1C(F)(F)F)N(C(=O)[C@H]1C[C@@](C)(O)CN1C#N)c1ccc(S(F)(F)(F)(F)F)cc1)c1ccccc1 (stereo partly drawn) [Compound 1347, (2R,4R)-1-cyano-4-hydroxy-4-methyl-N-[2-oxo-2-[[(1S)-1-phenylethyl]amino]-1-[4-(trifluoromethyl)-3-pyridyl]ethyl]-N-[4-(pentafluoro-λ6-sulfanyl)phenyl]pyrrolidine-2-carboxamide] | < 2000 nM | < 2000 nM | – | < 2 µM | – | – | –
24 | CO[C@@H]1C[C@H](C(=O)N(c2ccc(S(F)(F)(F)(F)F)cc2)C(C(=O)NC2CC3CCC(C2)O3)c2cccnc2)N(C#N)C1 (single isomer, unassigned) [1187 Isomer 1] | < 2000 nM | < 2000 nM | – | < 2 µM | – | – | –
25 | O=C(NC1CCC(F)(F)CC1)C(c1cncc(F)c1)N(C(=O)c1cnc[nH]1)c1ccc(S(F)(F)(F)(F)F)cc1 (single isomer, unassigned) [1337 Isomer 2, N-[2-[(4,4-difluorocyclohexyl)amino]-1-(5-fluoro-3-pyridyl)-2-oxo-ethyl]-N-[4-(pentafluoro-λ6-sulfanyl)phenyl]-1H-imidazole-5-carboxamide] | – | 10000 to 30000 nM | > 30 µM | – | – | – | 2000 to 10000 nM
26 | CC(C)(C)c1ccc(N(C(=O)[C@H]2CCCN2C#N)C(C(=O)NCc2ccncc2)c2cccnc2)cc1 (single isomer, unassigned) [Compound 439 Isomer 2] | – | 2000 to 10000 nM | 10 to 30 µM | – | – | – | < 2000 nM
